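Results reflect a 48-hour exposure of cells in 96-well plates to compound at five concentrations. Here, GI50 denotes the concentration required for 50% inhibition of growth.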 Activity calls are given as the source filed them. Cut-off read from the data, not from the text of the source: active = GI50 up to about 1.1 µM and inactive = higher.

The source of these data is ChEMBL document CHEMBL1201862, “PubChem BioAssay data set” (2004).

Common to all, as to assay: growth of human tumour cells (NCI), 48 h
Assay [1] deals with MOLT-4.
Assay [2] relates to HCT-15.
Assay [3] has as its system NCI-H460.
The subject of assay [4] is T47D.
Assay [5] relates to DU-145.
The test system of assay [6] is PC-3.
Assay [7] relates to U-251.
Assay [8] deals with MDA-N.
In assay [9] the test system is SK-MEL-5.
In assay [10] the test system is NCI-H226.
The test system of assay [11] is ACHN.
Assay [12] concerns A498.
The subject of assay [13] is MCF7.
Assay [14] has as its system RPMI-8226.
Assay [15] has as its system Hs-578T.

In the case of `Cc1cc(C)n(-c2nc3ccccc3c(=O)n2-c2ccccc2)n1`, the GI50 in assay [1] is > 100 µM (inactive); in [2] it was greater than 100 µM; in [3], > 100 µM (inactive); in [4] it was > 100 µM (inactive); in [5] it was > 100 µM (inactive); in assay [6] it was > 100 µM (inactive). Besides, the GI50 in [7], in assay [8], in assay [9], in assay [10], in [11] and in assay [12] was > 100 µM (inactive) each time. In addition, the GI50 in [13] was > 100 µM (inactive).

As for `OC1C2CN3CCN(C2)CC1(c1ccccc1)C3` (stereo not given), the GI50 in [1], in assay [5], in [6], in assay [7], in assay [8] and in [9] was > 100 µM (inactive) throughout. For the same compound, the GI50 in assay [14], in assay [10], in assay [11], in [12], in assay [13] and in assay [15] was > 100 µM (inactive) each time.

On to `O=S(=O)(O)c1cc(/N=N/c2c(O)ccc3ccccc23)cc2c(S(=O)(=O)O)cccc12`, for which the GI50 in assay [1] is > 100 µM (inactive); in [2], greater than 100 µM; in assay [3], > 100 µM (inactive); in assay [6], > 100 µM (inactive); in [7], > 100 µM (inactive); in [9], > 100 µM (inactive). Also, the GI50 in [14], in assay [10], in assay [11], in [12], in assay [13] and in assay [15] was > 100 µM (inactive) throughout.

As to `CCOP(C)(=O)C(Cc1c[nH]c2ccccc12)C(=O)O` (stereo not given), the GI50 in assay [1] was > 100 µM (inactive); in [2], greater than 100 µM; in [4], > 100 µM (inactive); in [5], > 100 µM (inactive); in assay [6], > 100 µM (inactive); in assay [7], > 100 µM (inactive). In addition, the GI50 in assay [8], in [9], in [14], in [11], in assay [12] and in assay [13] was > 100 µM (inactive) throughout.

For `COC(=O)/C=C/c1ccc2c(c1)CC1(Cc3ccccc3C1)C2`, the GI50 in assay [1] is 34.9 µM (inactive); in assay [2], greater than 100 µM; in [4] it was > 100 µM (inactive); in assay [6], > 100 µM (inactive); in assay [7], > 100 µM (inactive); in assay [8] it was 87.5 µM (inactive). Besides, the GI50 is 43.2 µM (inactive) in assay [9]; 60.7 µM (inactive) in assay [14]; > 100 µM (inactive) in assay [10]; > 100 µM (inactive) in [11]; > 100 µM (inactive) in assay [12]; > 100 µM (inactive) in assay [13]. In addition, in assay [15], the GI50 is 23.6 µM (inactive).

Take `CC(=O)N(C)c1ccc(Nc2ccnc3ccc4nn(C)nc4c23)cc1`: the GI50 in [1] is 13.6 µM (inactive); in assay [2] it was 21.5 µM; in [4] it was 20.1 µM (inactive); in [5] it was 28.6 µM (inactive); in assay [6], 26.9 µM (inactive); in assay [7], 33.5 µM (inactive). Besides, the GI50 in [8] was 36.1 µM (inactive); in assay [9] it was 19.9 µM (inactive); in assay [14], 20.3 µM (inactive); in assay [10], 15.6 µM (inactive); in assay [11], 13.7 µM (inactive); in assay [13], 13.4 µM (inactive). The GI50 in [15] was 17.3 µM (inactive).

Regarding `CC(=NNC(=S)Nc1ccccc1C)c1cccc(C(C)=NNC(=S)Nc2ccccc2C)n1`, the GI50 in assay [1] was 14.1 µM (inactive); in [2], 8.63 µM; in [3], 15.3 µM (inactive); in [4], > 100 µM (inactive); in assay [5], 23.1 µM (inactive); in [6], 32.1 µM (inactive). Besides, the GI50 is 34.4 µM (inactive) in [7]; > 100 µM (inactive) in assay [8]; 1.3 µM (inactive) in assay [9]; > 100 µM (inactive) in assay [14]; 9.73 µM (inactive) in [10]; 4.15 µM (inactive) in assay [11]. Also, the GI50 is > 100 µM (inactive) in assay [12] and 65.2 µM (inactive) in assay [13].

Turning to `N#Cc1nc(COCCOCc2ccc(F)cc2)oc1N`, the GI50 in assay [1] was > 100 µM (inactive); in assay [2], greater than 100 µM; in assay [3], > 100 µM (inactive); in assay [4], > 100 µM (inactive); in [5] it was > 100 µM (inactive); in [6], > 100 µM (inactive). The GI50 in assay [7], in [9], in assay [14], in assay [10], in [11] and in assay [12] was > 100 µM (inactive) in each case. In assay [13], the GI50 is > 100 µM (inactive).

With `COc1ccc(C2=C(OC(C)=O)c3cccn3-c3ccccc3S2)cc1`, the GI50 in assay [1] is 4.06 µM (inactive); in assay [2] it was 1.18 µM; in assay [4], 5.9 µM (inactive); in [5] it was 2.46 µM (inactive); in [6] it was 2.3 µM (inactive); in assay [8], 0.34 µM (active). In addition, the GI50 is 3.37 µM (inactive) in assay [9], 2.4 µM (inactive) in assay [14] and 3.48 µM (inactive) in assay [13].

For `CC(=O)/C(=C/NC(=S)Nc1ccc(Cl)c(Cl)c1)C(=O)Nc1ccccc1C`, the GI50 in [1] is 16 µM (inactive); in [2], 29.6 µM; in assay [3], 38.5 µM (inactive); in assay [4] it was 4.65 µM (inactive); in [5] it was 26.4 µM (inactive); in assay [7] it was 33 µM (inactive). Further, the GI50 in [8] is 25.3 µM (inactive); in assay [9], 19.2 µM (inactive); in assay [10] it was 13.8 µM (inactive); in [11] it was 32.6 µM (inactive); in [12], 26.2 µM (inactive); in assay [13], 26.9 µM (inactive).

For the compound `C/C(=N/NC(=S)Nc1ccc([N+](=O)[O-])cc1)c1cccc(/C(C)=N\NC(=S)Nc2ccc([N+](=O)[O-])cc2)n1`, the GI50 in [1] is 0.308 µM (active); in [2], 0.125 µM; in assay [3], 0.34 µM (active); in assay [4], 2.16 µM (inactive); in assay [6], 0.6 µM (active); in [7], 0.547 µM (active). Also, the GI50 was 2.35 µM (inactive) in assay [8]; 0.353 µM (active) in [9]; 0.491 µM (active) in assay [14]; 0.193 µM (active) in [10]; 0.126 µM (active) in [11]; 1.09 µM (active) in assay [12]. The GI50 in assay [13] was 0.341 µM (active); in assay [15], 3.9 µM (inactive).

Take `CN(C)c1ccc(/C=C2\Oc3ccccc3C2=O)cc1`: the GI50 was > 100 µM (inactive) in assay [1]; greater than 100 µM in [2]; > 100 µM (inactive) in [3]; > 100 µM (inactive) in assay [4]; > 100 µM (inactive) in assay [5]; > 100 µM (inactive) in [6]. For the same compound, the GI50 in assay [7] was > 100 µM (inactive); in assay [8] it was 34.8 µM (inactive); in [9], > 100 µM (inactive); in assay [14], > 100 µM (inactive); in [10], > 100 µM (inactive); in [11] it was > 100 µM (inactive). The values for the GI50 in assay [13] and in assay [15] were 54.1 µM (inactive) and 22.5 µM (inactive), respectively.

As to `CSS(C)(=O)=O`, the GI50 in assay [1] was 2.43 µM (inactive); in assay [2] it was 24.9 µM; in assay [3], > 100 µM (inactive); in assay [4] it was 15.1 µM (inactive); in [5], 21.5 µM (inactive); in [6], 18 µM (inactive). Also, the GI50 in [7] is 37.1 µM (inactive); in assay [9], 61.5 µM (inactive); in assay [14] it was 1.95 µM (inactive); in assay [10], 21.4 µM (inactive); in [11], 26.2 µM (inactive); in assay [12], > 100 µM (inactive). Besides, the GI50 in assay [13] was 26.7 µM (inactive); in [15], 49.2 µM (inactive).

For the compound `Cc1nnc2nc(-c3ccc(Cl)cc3Cl)cc(-c3ccc(Cl)cc3)n12`, the GI50 in assay [1] was 15.5 µM (inactive); in assay [2], greater than 100 µM; in [3], 82.6 µM (inactive); in assay [4], 89.1 µM (inactive); in assay [5] it was > 100 µM (inactive); in assay [6], 57.8 µM (inactive). Further, the GI50 in assay [7] is > 100 µM (inactive); in [8], > 100 µM (inactive); in assay [9] it was 68.5 µM (inactive); in assay [14], 35.6 µM (inactive); in assay [10], > 100 µM (inactive); in assay [11], > 100 µM (inactive). Besides, the figures for the GI50 in assay [13] and in assay [15] were 31 µM (inactive) and > 100 µM (inactive), respectively.

Regarding `O=S(=O)(N/N=C1\CC2CCC1C2)c1ccccc1` (stereo not given), the GI50 in assay [1] was > 100 µM (inactive); in assay [2], greater than 100 µM; in [3] it was > 100 µM (inactive); in assay [5] it was > 100 µM (inactive); in assay [6], > 100 µM (inactive); in [7], > 100 µM (inactive). Further, the GI50 in assay [8], in [9], in assay [14], in assay [10], in [11] and in assay [13] was > 100 µM (inactive) each time. The GI50 in assay [15] is > 100 µM (inactive).

Turning to `c1ccc(-c2ccc(-c3ccc(C4=NCCN4)cc3)o2)cc1`, the GI50 in [1] was 1.82 µM (inactive); in [2], 1.87 µM; in assay [3] it was 2.4 µM (inactive); in assay [4] it was 2.65 µM (inactive); in assay [5], 3.25 µM (inactive); in assay [6], 2.23 µM (inactive). The GI50 in [7] is 1.92 µM (inactive); in [9], 2.08 µM (inactive); in [14], 0.94 µM (active); in [10], 2.99 µM (inactive); in assay [11], 2.95 µM (inactive); in assay [12], 1.76 µM (inactive). Also, the GI50 in assay [13] is 1.91 µM (inactive).
